From PubChem BioAssay AID1963841 (Molecular Pharmacology Branch, DTP, NCI, 2024)

Tested on: 439559-082-T-J2-PDC spheroid viability
Assay: Anticancer human tumor 439559-082-T-J2-PDC patient-derived colon adenocarcinoma cell line growth inhibition [POLQ]
Details: spheroids with HUVEC and MSC; for IC50: curve of first compound; for viability, T/C: stronger effect = lower value
Description: Multicellular complex tumor spheroid response to Polymerase (POL) inhibitors (novobiocin, ART-558, RP6685) in combination with a variety of drugs and investigational agents in selected tumor cell lines
The POL inhibitors (novobiocin, ART-558, and RP6685) were evaluated both individually and in combination with standard of care and investigational anticancer small molecules within a complex spheroid model of solid tumors. . Complex spheroids include a stromal component modeled by human endothelial cells (HUVEC) and fibroblasts modeled by human mesenchymal stem cells (MSCs). The concentration ranges selected for each drug and investigational agent were based upon clinically achievable concentrations if the clinical Cmax of the agent was known.
Compounds. The drugs and investigational agents: novobiocin (NSC847541), ART-558 (NSC835418), RP-6685 (NSC848927), peposertib (NSC802822), ceralasertib (NSC780249), elimusertib (NSC800525), camonsertib (NSC841442), AZD-1390 (NSC803789), olaparib (NSC753686), talazoparib (NSC767125), rucaparib (NSC756644), sotorasib (NSC818433), MRTX-1133 (NSC836407), SN-38 (NSC673596), topotecan (NSC609699), epotoside (NSC141540), doxorubicin (NSC123127), gemcitabine (NSC613327), 5-fluorouracil (NSC19893), paclitaxel (NSC125973), vemurafenib (NSC761431), MSA-2 (NSC828583), SN-011 (NSC837082), adavosertib (NSC754352), prexasertib (NSC758257), carboplatin (NSC241240) and oxaliplatin (NSC266046), were obtained from the National Cancer Institute (NCI) Developmental Therapeutics Program Chemical Repository (21). The FDA-approved anticancer drug set is available from the Developmental Therapeutics Program at https://dtp.cancer.gov/organization/dscb/obtaining/. […] The stock solutions were prepared in dimethyl sulfoxide (DMSO, Sigma-Aldrich, St. Louis, MO, cat. D2650), except for the platinum compounds which were prepared in saline (Quality Biological, Gaithersburg, MD, cat. 114-055-101), at 800-fold the tested concentration and stored at -70 degrees C prior to their use. All drugs and investigational agents were tested over a range starting from a high concentration at or near the clinical Cmax and decreasing in half-log increments. If the clinical Cmax for an agent had not been determined, the highest concentration tested was 10 microM, except for SN-38, which was tested at a high concentration of 1 microM.
Cell Culture. All cells were maintained in an incubator at 37 degrees C and 5% CO2 with 95% humidity. The PDC lines were cultured according to standard operating procedures established by the NCI PDMR (https://pdmr.cancer.gov). Table 3 of the manuscript, lists the cell lines along with the number of the three cell types plated to form the mct-spheroids and media for tumor cell growth. After thawing, all PDC lines, except 997537-175-T-J1-PDC and 415267-285-R-J2-PDC, were cultured in Matrigel-coated flasks prepared with a working solution of 1X Ham's F-12 nutrient mix, without supplementation (Thermo Fisher Scientific, cat. 11765054), 100 U/mL penicillin-streptomycin (Thermo Fisher Scientific, cat. 15140122), and 2.5% Matrigel (Corning Inc., Corning, NY, cat. 354248) for the first three passages. The two PDC lines 997537-175-T-J1-PDC and 415267-285-R-J2-PDC were cultured on uncoated flasks. The 857933-349-R-J2-PDC line was cultured in 6C/Colon 1B media containing advanced DMEM/F-12 (Thermo Fisher Scientific, cat. 12634028), 10 mM HEPES (Thermo Fisher Scientific, cat. 15630080), 1X GlutaMAX supplement (Thermo Fisher Scientific, cat. 35050061), 0.1 mg/mL primocin (InvivoGen, San Diego, CA, cat. ant-pm-2), 10% defined fetal bovine serum, heat inactivated (HyClone Laboratories Inc., Logan, UT, cat. SH30070.03HI), 50% L-WRN conditioned media (ATCC, cat. CRL-3276), 1.25 mM N-Acetyl-L-cysteine (Sigma-Aldrich, cat. A9165), 10 mM nicotinamide (Sigma-Aldrich, cat. N0636), 1X B-27 supplement (Thermo Fisher Scientific, cat. 17504044), 1X N-2 supplement (Thermo Fisher Scientific, cat. […]
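Further: spheroids exposed to compounds for seven days before readout.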
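Wherever viability, T/C is given: 100% = DMSO vehicle control viability.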

Structure (SMILES): CC1COCCN1c1cc(C2(S(C)(=N)=O)CC2)nc(-c2ccnc3[nH]ccc23)n1 (configuration not stated) + Nc1ccc(C#CCN(C(=O)Cc2ncc(C(F)(F)F)cc2C(F)(F)F)c2ccc(F)cc2)nn1
- IC50 (second compound 0.0316 µM): > 10 µM
- IC50 (second compound 0.1 µM): > 10 µM
- IC50 (second compound 0.316 µM): > 10 µM
- IC50 (second compound 1 µM): > 10 µM
- IC50 (second compound 3.16 µM): > 10 µM
- IC50 (second compound 10 µM): > 10 µM
- viability, T/C (second compound 0.0316 µM, first compound 0.0316 µM): 98.7%
- viability, T/C (second compound 0.0316 µM, first compound 0.1 µM): 98.4%
- viability, T/C (second compound 0.0316 µM, first compound 0.316 µM): 88.9%
- viability, T/C (second compound 0.0316 µM, first compound 1 µM): 95.8%
- viability, T/C (second compound 0.0316 µM, first compound 3.16 µM): 89%
- viability, T/C (second compound 0.0316 µM, first compound 10 µM): 74.7%
- viability, T/C (second compound 0.1 µM, first compound 0.0316 µM): 99.4%
- viability, T/C (second compound 0.1 µM, first compound 0.1 µM): 91%
- viability, T/C (second compound 0.1 µM, first compound 0.316 µM): 96.7%
- viability, T/C (second compound 0.1 µM, first compound 1 µM): 79.6%
- viability, T/C (second compound 0.1 µM, first compound 3.16 µM): 84.1%
- viability, T/C (second compound 0.1 µM, first compound 10 µM): 71.5%
- viability, T/C (second compound 0.316 µM, first compound 0.0316 µM): 94.5%
- viability, T/C (second compound 0.316 µM, first compound 0.1 µM): 115%
- viability, T/C (second compound 0.316 µM, first compound 0.316 µM): 96.3%
- viability, T/C (second compound 0.316 µM, first compound 1 µM): 90.8%
- viability, T/C (second compound 0.316 µM, first compound 3.16 µM): 77%
- viability, T/C (second compound 0.316 µM, first compound 10 µM): 70.5%
- viability, T/C (second compound 1 µM, first compound 0.0316 µM): 98.3%
- viability, T/C (second compound 1 µM, first compound 0.1 µM): 105%
- viability, T/C (second compound 1 µM, first compound 0.316 µM): 98%
- viability, T/C (second compound 1 µM, first compound 1 µM): 96.4%
- viability, T/C (second compound 1 µM, first compound 3.16 µM): 74.8%
- viability, T/C (second compound 1 µM, first compound 10 µM): 65.3%
- viability, T/C (second compound 3.16 µM, first compound 0.0316 µM): 94.1%
- viability, T/C (second compound 3.16 µM, first compound 0.1 µM): 98.9%
- viability, T/C (second compound 3.16 µM, first compound 0.316 µM): 95.3%
- viability, T/C (second compound 3.16 µM, first compound 1 µM): 76%
- viability, T/C (second compound 3.16 µM, first compound 3.16 µM): 83.7%
- viability, T/C (second compound 3.16 µM, first compound 10 µM): 67.5%
- viability, T/C (second compound 10 µM, first compound 0.0316 µM): 99.3%
- viability, T/C (second compound 10 µM, first compound 0.1 µM): 101%
- viability, T/C (second compound 10 µM, first compound 0.316 µM): 86.8%
- viability, T/C (second compound 10 µM, first compound 1 µM): 94.7%
- viability, T/C (second compound 10 µM, first compound 3.16 µM): 84.9%
- viability, T/C (second compound 10 µM, first compound 10 µM): 72%
